The values below come from paper PMC12348863 (Molecules, 2025).

A short description of series [1]: Water solubility analysis (dissolved CBD in deionised water, HPLC). The series is classed as physicochemical. As for the experimental part: The prepared CBD-GA complexes, in various molar ratios, were tested for water solubility. In a typical experiment, between 1.0 and 1.5 mg of the complex was accurately weighed and dissolved in 1 mL of deionised water (Merck Millipore, Burlington, MA, USA) under vigorous mixing. If necessary, an ultrasonic bath was employed to aid dissolution.
Following mixing, the solution was centrifuged for 3 min at 3000× g. The resulting supernatant was transferred to vials for HPLC analysis. The concentration of dissolved CBD was quantified using a chromatographic method with an Agilent 1260 Infinity HPLC system (Waldbronn, Germany). Further details are provided in Appendix A.4.
The concentration of CBD in dissolution and permeation test samples was assayed using an Agilent 1260 Infinity system with UV detection. The column in use was Luna C18(2) (Phenomenex, Torrance, CA, USA), with dimensions 150 mm × 3 mm, 3 µm particle size. The column flow rate was 0.8 mL/min at 37 °C. The elution was isocratic, with the mobile phase consisting of acetonitrile–water at a ratio of 31:9 (v/v), with 10 mM ammonium formate and 0.1% (v/v) formic acid added (without pH adjustment). The injection volume was 5 µL, and the run time was 5 min. The UV detector wavelength was set at 275 nm.

Series [2] can be described thus: In vitro permeation (PAMPA) test. Format: in vitro ADME. The conditions noted are these: 159 µM CBD. (In PAMPA a lipid-coated filter parts donor from acceptor wells.)
Procedure: In vitro permeation (PAMPA) tests were performed to evaluate differences in permeation parameters between regular (lipophilic) CBD and the water-soluble CBD complex. Atenolol and metoprolol were included as control substances. The initial concentration of CBD in the donor medium was 159 µM, while the concentrations of atenolol and metoprolol were 500 µM each. The experiments were conducted using a 96-well PAMPA plate with PVDF filter membranes (Sigma-Aldrich). The donor medium consisted of 50 mM phosphate buffer (pH 6.5, Sigma-Aldrich) containing 5% (v/v) DMSO, with a volume of 300 µL per well. The acceptor medium used was Pion’s “acceptor sink buffer” (Billerica, MA, USA), added in a volume of 200 µL per well. The artificial membrane solution consisted of 1% (w/v) cholesterol (Merck, Darmstadt, Germany) dissolved in a 3:1 (v/v) mixture of dodecane and n-hexane. Prior to the experiment, 4 µL of this membrane solution was applied to each filter membrane. Each test compound was assessed in 12 replicates. The total duration of the experiment was 260 min. […] At the end of this experiment, both donor and acceptor solutions were analysed by HPLC. CBD concentrations were determined using HPLC with UV detection, according to the method described by Križman [39] […] Atenolol and metoprolol concentrations were analysed by HPLC with FL detection, following the protocol of Yilmaz et al. [40] […]
For series [3] the following is noted: unformulated CBD; cited from earlier work.

Where only a bound is given, the exact number is not on record here.

Take `C=C(C)[C@@H]1CCC(C)=C[C@H]1c1c(O)cc(CCCCC)cc1O` [pure CBD, Cannabidiol]: in series [1] (deionised water, supernatant after centrifugation, HPLC, read-out: CBD Concentration (water solubility)), the solubility was less than 0.06 µg/mL. Besides, the “aqueous solubility, times lower than that of the water-soluble CBD complex” value in series [1] (unformulated CBD versus water-soluble CBD complex) was “more than 400 times”. In series [2] (donor 50 mM phosphate buffer pH 6.5 with 5% DMSO, 12 replicates, read-out: average permeability), the Papp at 260 min, 159 µM is 1.98 ×10⁻⁶ cm/s. The “mass retention in the lipophilic membrane” value in series [2] (donor pH 6.5 with 5% DMSO, 260 min, average) is given as 84%. The aqueous solubility result in series [3] is on record as “less than 60 ng/mL”.
